# Entries after “also recorded” stand apart in the source; their conditions may differ.
# How the values were obtained:
# [1] = biological target: T1, alpha 1A subtype (Rattus norvegicus, UniProt P43140); assay: [3H]prazosin binding assay in rat salivary gland; details: for selectivity index (I.S. alpha 1B/alpha 1A): alpha 1A versus alpha 1B subtype
# T1 sequence (P43140 1-466): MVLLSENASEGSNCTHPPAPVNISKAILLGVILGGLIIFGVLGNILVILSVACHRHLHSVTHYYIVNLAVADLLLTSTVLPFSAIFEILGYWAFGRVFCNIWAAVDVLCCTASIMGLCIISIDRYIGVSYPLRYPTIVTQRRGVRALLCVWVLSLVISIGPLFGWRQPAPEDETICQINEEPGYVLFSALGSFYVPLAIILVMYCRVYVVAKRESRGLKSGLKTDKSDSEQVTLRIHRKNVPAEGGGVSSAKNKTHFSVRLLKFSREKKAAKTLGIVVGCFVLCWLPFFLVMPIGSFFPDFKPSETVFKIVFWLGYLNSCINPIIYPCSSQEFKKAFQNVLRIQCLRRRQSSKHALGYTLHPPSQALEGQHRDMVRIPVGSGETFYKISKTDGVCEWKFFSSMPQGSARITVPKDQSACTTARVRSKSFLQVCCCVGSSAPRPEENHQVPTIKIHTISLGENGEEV
# [2] = test system: alpha 1A and alpha 1B adrenoceptors (rabbit aorta, α1A > α1B); assay: Vasoconstriction assay in rabbit aorta induced by phenylephrine; type: cell-based; details: for pKB (apparent antagonist potency): Schild equation, 3-300 nM
# Experimental: Vasoconstriction Assay in Rabbit Aorta Induced by Phenylephrine
# Aorta rings withdrawn from young male rabbits (1500-1700 g) were tensionated to 2 g (20 mN) and kept in Krebs solution, containing 10 mM Hepes, for 30 minutes, under continuous aeration. During this period, eventual tension adjustments were performed until stabilization in 2 g, always with renewal of Krebs solution. Then, vasoconstrictions were induced by 60 mM KCl solution, in each ring, to verify the viability of the organ on the day of the experiment. The preparation was submitted to contraction with phenylephrine (5×10^−5 M) and, then the rings were washed to reach the basal line (0% of vasoconstriction). The procedure was repeated until obtainment of a constant curve. Then, a curve, using increasing concentrations of phenylephrine (5×10^−9-5×10^−4 M), was performed for each ring, as a positive control. The segments were washed to reach the basal line (0% of vasoconstriction) and incubated with the test compounds, individually, for 30 minutes. A second phenylephrine curve was performed and the obtained data compared to the first control curve. The results were analyzed by one-way ANOVA software from Microcal Origin 4.1. The aorta rings were used once for each compound.
# Determination of the LASSBio 772 Antagonist Potency (pKB) on the Vasoconstriction of Rabbit or Rat Thoracic Aorta.
# cr is the ratio between phenylephrine concentrations in the presence and absence of antagonist; and
# B is the antagonist's concentration.
# [3] = test system: phenylephrine vasopressor effects; assay: Inhibition of phenylephrine vasopressor effects in anesthetized rabbits; type: in vivo; details: rabbit, i.v., versus control curve
# Experimental: Animal and Homodynamic Measurements:
# The experiments were performed with male rabbits weighing 3 kg, from the CECAL (Centro de Criação de Animais de Laboratório) at Fundação Oswaldo Cruz. The animals were anesthetized with sodium pentobarbital (40 mg/kg) in the ear marginal vein, and anesthesia maintenance was obtained with supplemental intravenous (i.v.) doses of 5 mg/kg as necessary. The […] were tracheomized, inserted with a polyethylene canule, and immobilized with pancuronium bromide (1 mg/kg, i.v.), with supplemental doses of 0.2 mg/kg for each hour of experiment and artificially ventilated with a mechanical fan (Rodent ventilator 7025, Ugo Basile) with a volume of 10 ml/kg and frequency from 40 to 50 incursions/min. The right femoral vein was catheterized for drug administration.
# The arterial pressure was monitored through abdominal aorta catheter via the right femoral artery and connected to a quartz transductor Hewlett Packard (1290 A), which was connected to an arterial pressure processor and recorder Hewlett Packard (system 7754 with amplifier 8805 B).
# The systolic (SAP) and diastolic (DAP) arterial pressures were obtained directly from the records and the average arterial pressure (AAP) was calculated by DAP's Sum with a third of the differential pressure [[…]]. The cardiac frequency was determined by counting the pressure waves, visualized with the speed increase of the recorder paper.
# The cardiac debit (DC) was monitored using an electromagnetic probe, connected to a Skalar flowmeter model MDL 1401. After left thoraxatomy, between the second and third ribs, was made an incision in the pericardium and the heart was exposed to enable the visualization and dissection of the ascending aorta for installation of the electromagnetic probe. The systemic vascular resistance (SVR) was calculated as a quotient of the average arterial pressure by the cardiac debit, multiplied by a conversion factor 80 (SVR=AAP/DC×80) and expressed in dyn/seg/cm-5.
# At the conclusion of the anesthetic-surgical procedures, a 15-minute period was allowed for stabilization of the homodynamic parameters. Before any pharmacological manipulation the average arterial pressure, cardiac frequency and cardiac debit measurements were obtained. These values were considered basal homodynamic values.
# Dose-Response Curve of the Phenylephrine Vasopressor Effect:
# After surgical procedures and stabilization of the homodynamic parameters, a dose-response curve of the phenylephrine pressure effects was performed ([…], i.v.), that were named control curves. […]
# The results were expressed as average±standard deviation (E.P.M.) The administration effects of LASSBio 772 with regard to the basal values were analyzed through variance analysis (ANOVA) for repeated measurements. […]
# [4] = biological target: T2, H1 receptors (Cavia porcellus, UniProt P31389); assay: Cobaio (guinea pig) trachea contraction induced by histamine; type: cell-based; details: histamine 100 microM, compound 3 nM-30 microM
# T2 construct: from tissue; host or cells: guinea pig trachea strips
# T2 sequence (P31389 whole entry): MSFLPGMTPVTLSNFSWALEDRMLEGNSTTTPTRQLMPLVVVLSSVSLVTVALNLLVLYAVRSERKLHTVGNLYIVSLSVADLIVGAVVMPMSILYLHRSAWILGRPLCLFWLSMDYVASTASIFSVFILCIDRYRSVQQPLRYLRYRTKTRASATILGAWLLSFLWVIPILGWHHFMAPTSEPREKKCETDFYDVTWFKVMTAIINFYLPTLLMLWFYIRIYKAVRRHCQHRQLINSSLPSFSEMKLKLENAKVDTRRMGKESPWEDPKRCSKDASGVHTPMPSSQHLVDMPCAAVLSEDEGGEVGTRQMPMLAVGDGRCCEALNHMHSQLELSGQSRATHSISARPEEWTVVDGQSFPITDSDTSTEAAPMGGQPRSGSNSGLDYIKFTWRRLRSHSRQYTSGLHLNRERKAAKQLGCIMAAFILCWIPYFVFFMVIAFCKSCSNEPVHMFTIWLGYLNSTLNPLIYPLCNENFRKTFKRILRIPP
# Excerpt: Cobaios albinos from both sexes, weighing between 400 and 600 g were used in this experiment. The animals were sacrificed by cervical displacement and posterior bleed. Then, their tracheas were removed, kept in 5 microM indometacin added Krebs-Henseleit physiologic solution and oxygenated with carbogenic mixture (95% O2 and 5% CO2), proceeding the removal of the connective and adhered adipose tissue. From these tracheas were obtained segments with 4-6 rings, that are sectioned in the opposite side of the smooth musculature, originating strips used in the contractions assay (ARAKIDA et al., J. Pharmacol. Exper. Therap., 287: 633-639, 1998).
# These strips were adapted in glass containers of 1.0 mL containing nutritious solution and continuous aeration with carbogenic mixture. The containers are maintained in a bath (Ugo Basile 4050) at the constant temperature of 37±0.50° C., mimicking thus physiologic terms in vitro. The trachea strips were connected to isometric force transducers (Ugo Basile 7011-4), submitted to a tension of 1 g and rested for 1 hour, changing the solution in 15 minute intervals, to obtain the balance to this tension.
# After the period, the organ is treated with agonists that will induce contractions. […] The tissue viability was evaluated by contraction induction with histamine 100 microM or carbacol 10 microM. […]
structure (smiles),measurement,setting,value
"COc1ccccc1N1CCN(CCc2ccc3c(c2)OCO3)CC1 [LASSBio 772, 1-(2-1,3-Benzodioxol-5-yl-ethyl)-4-(2-methoxy-phenyl)-piperazine]",IC50,[1],0.26 nM
same,"selectivity indexes of alpha 1A/alpha 1D versus alpha 1B subtype and beta 2, H1 and cholinergic muscarinic receptors",[1],at least a thousand times
same,selectivity index (I.S. alpha 1B/alpha 1A),[1],≥ 1700
same,selectivity index (I.S. alpha 1B/alpha 1A),[1]; listed as LASSBio-772,1730
same,Ki,"[1]; rat salivary gland, Cheng Prussof",0.14 nM
same,antagonist activity on vasoconstriction,"[2]; 30 microM compound, 5×10^−4 M phenylephrine",significant antagonist activity
same,Kb,"[2]; rabbit aorta, phenylephrine",~14.1 nM
same,pKB (apparent antagonist potency),"[2]; rabbit aorta, phenylephrine",7.85
same,pKB (apparent antagonist potency),"[2]; rabbit aorta, phenylephrine, listed as LASSBio-772",around 7.85
same,blockade of phenylephrine effects,[3],significantly blocked; also recorded: prevented the phenylephrine hypo-tensor effect
same,IC50,[4],309 nM
